Source: patent publication US9751890B2, “Heteroaryl derivatives as CFTR modulators” (Vertex Pharmaceuticals Incorporated, priority 2008, dated 2017)

Molecular target: T1, ΔF508-CFTR (Homo sapiens, UniProt P13569, DEL508-508)
T1 construct: expressed in transfected cells
Experiment: Membrane potential optical assay for ΔF508-CFTR correction (single-addition HTS format)
Type: cell-based
Settings: NIH3T3 mouse fibroblasts stably expressing ΔF508-CFTR; 16-24 hrs with compound; activation with 10 μM forskolin and 20 μM genistein; read-out: BinnedMaxEfficacy (PercentActivity)
Text: Membrane potential optical methods for assaying ΔF508-CFTR modulation properties of compounds.
The assay utilizes fluorescent voltage sensing dyes to measure changes in membrane potential using a fluorescent plate reader (e.g., FLIPR III, Molecular Devices, Inc.) as a readout for increase in functional ΔF508-CFTR in NIH 3T3 cells. The driving force for the response is the creation of a chloride ion gradient in conjunction with channel activation by a single liquid addition step after the cells have previously been treated with compounds and subsequently loaded with a voltage sensing dye.
To identify small molecules that correct the trafficking defect associated with ΔF508-CFTR; a single-addition HTS assay format was developed. Assay Plates containing cells are incubated for ˜2-4 hours in tissue culture incubator at 37° C., 5% CO2, 90% humidity. Cells are then ready for compound exposure after adhering to the bottom of the assay plates.
The cells were incubated in serum-free medium for 16-24 hrs in tissue culture incubator at 37° C., 5% CO2, 90% humidity in the presence or absence (negative control) of test compound. The cells were subsequently rinsed 3× with Krebs Ringers solution and loaded with a voltage sensing redistribution dye. To activate ΔF508-CFTR, 10 μM forskolin and the CFTR potentiator, genistein (20 μM), were added along with Cl^−-free medium to each well. The addition of Cl^−-free medium promoted Cl^− efflux in response to ΔF508-CFTR activation and the resulting membrane depolarization was optically monitored using voltage sensor dyes.
Bath Solution #1: (in mM) NaCl 160, KCl 4.5, CaCl2 2, MgCl2 1, HEPES 10, pH 7.4 with NaOH.
Chloride-free bath solution: Chloride salts in Bath Solution #1 are substituted with gluconate salts.
NIH3T3 mouse fibroblasts stably expressing ΔF508-CFTR are used for optical measurements of membrane potential. The cells are maintained at 37° C. in 5% CO2 and 90% humidity in Dulbecco's modified Eagle's medium supplemented with 2 mM glutamine, 10% fetal bovine serum, 1×NEAA, β-ME, 1× pen/strep, and 25 mM HEPES in 175 cm^2 culture flasks. For all optical assays, the cells were seeded at ˜20,000/well in 384-well matrigel-coated plates and cultured for 2 hrs at 37° C. before culturing at 27° C. for 24 hrs. for the potentiator assay. For the correction assays, the cells are cultured at 27° C. or 37° C. with and without compounds for 16-24 hours.

T1 sequence (P13569 with tags, fused parts or gaps DEL508-508): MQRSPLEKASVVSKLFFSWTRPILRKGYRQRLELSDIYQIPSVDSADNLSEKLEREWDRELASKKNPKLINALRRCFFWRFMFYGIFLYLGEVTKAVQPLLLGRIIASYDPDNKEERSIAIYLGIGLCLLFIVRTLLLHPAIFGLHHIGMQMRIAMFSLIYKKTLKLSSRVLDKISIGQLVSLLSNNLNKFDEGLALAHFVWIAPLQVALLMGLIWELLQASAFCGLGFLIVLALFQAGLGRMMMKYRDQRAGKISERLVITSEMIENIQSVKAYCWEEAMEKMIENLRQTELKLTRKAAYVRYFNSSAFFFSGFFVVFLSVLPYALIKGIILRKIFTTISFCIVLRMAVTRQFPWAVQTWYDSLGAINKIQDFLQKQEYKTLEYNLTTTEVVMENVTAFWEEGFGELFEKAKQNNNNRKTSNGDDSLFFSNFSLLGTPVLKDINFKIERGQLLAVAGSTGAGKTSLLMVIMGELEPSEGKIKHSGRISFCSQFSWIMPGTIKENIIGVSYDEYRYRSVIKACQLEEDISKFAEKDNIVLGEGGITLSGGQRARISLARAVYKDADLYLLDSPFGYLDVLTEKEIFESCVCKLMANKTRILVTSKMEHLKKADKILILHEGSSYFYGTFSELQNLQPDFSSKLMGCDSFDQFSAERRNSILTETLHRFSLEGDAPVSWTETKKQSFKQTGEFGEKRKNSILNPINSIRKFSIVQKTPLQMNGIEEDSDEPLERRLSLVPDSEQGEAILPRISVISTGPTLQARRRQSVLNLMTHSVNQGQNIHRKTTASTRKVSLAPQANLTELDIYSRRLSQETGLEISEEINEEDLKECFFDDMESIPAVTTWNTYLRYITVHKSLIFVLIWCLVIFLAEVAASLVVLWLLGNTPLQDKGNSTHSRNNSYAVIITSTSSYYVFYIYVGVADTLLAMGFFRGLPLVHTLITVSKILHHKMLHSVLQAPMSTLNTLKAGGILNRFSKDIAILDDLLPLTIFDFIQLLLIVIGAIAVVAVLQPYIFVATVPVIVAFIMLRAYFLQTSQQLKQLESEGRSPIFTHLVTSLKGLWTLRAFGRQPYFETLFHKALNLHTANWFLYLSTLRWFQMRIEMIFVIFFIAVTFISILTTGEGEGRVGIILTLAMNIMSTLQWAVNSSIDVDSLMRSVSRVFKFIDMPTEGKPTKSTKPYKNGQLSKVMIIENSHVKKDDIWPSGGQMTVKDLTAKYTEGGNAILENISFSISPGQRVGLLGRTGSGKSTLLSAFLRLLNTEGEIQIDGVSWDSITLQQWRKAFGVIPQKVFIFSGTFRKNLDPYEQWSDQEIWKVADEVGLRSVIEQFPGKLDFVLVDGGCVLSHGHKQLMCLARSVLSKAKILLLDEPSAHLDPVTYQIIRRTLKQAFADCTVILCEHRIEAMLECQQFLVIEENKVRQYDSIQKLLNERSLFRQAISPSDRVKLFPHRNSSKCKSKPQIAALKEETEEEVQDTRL

Emax [%]	Structure (SMILES)
25 to 100	Cc1ccnc(NC(=O)C2(c3ccc4c(c3)OCO4)CC2)n1 [Compound 25, 1-(benzo[d][1,3]dioxol-5-yl)-N-(4-methylpyrimidin-2-yl)cyclopropanecarboxamide]
> 100	COc1ccccc1Cc1ccc(NC(=O)C2(c3ccc4c(c3)OCO4)CC2)cn1 [Compound 3]
25 to 100	COc1ccc(-c2nc(NC(=O)C3(c4ccc5c(c4)OC(F)(F)O5)CC3)ncc2C)cn1 [Compound 10, 1-(2,2-difluorobenzo[d][1,3]dioxol-5-yl)-N-(4-(6-methoxypyridin-3-yl)-5-methylpyrimidin-2-yl)cyclopropanecarboxamide]
> 100	COc1ccccc1Cc1ccc(NC(=O)C2(c3ccc4c(c3)OCO4)CC2)nn1 [Compound 4]
25 to 100	O=C(Nc1ccc(Cc2ccccc2)nn1)C1(c2ccc3c(c2)OCO3)CC1 [Compound 44]
25 to 100	COc1ccccc1Cc1cnc(NC(=O)C2(c3ccc4c(c3)OCO4)CC2)cn1 [Compound 34]
> 100	COc1ccccc1Nc1ccc(NC(=O)C2(c3ccc4c(c3)OCO4)CC2)cn1 [Compound 43, 1-(benzo[d][1,3]dioxol-5-yl)-N-(6-(2-methoxyphenylamino)pyridin-3-yl)cyclopropanecarboxamide]
25 to 100	CNC(=O)c1ccc(-c2cc(NC(=O)C3(c4ccc5c(c4)OCO5)CC3)cnc2C)cc1 [Compound 16, 4-(5-(1-(benzo[d][1,3]dioxol-5-yl)cyclopropanecarboxamido)-2-methylpyridin-3-yl)-N-methylbenzamide]
> 100	O=C(Nc1cncc(Cc2ccccc2)n1)C1(c2ccc3c(c2)OCO3)CC1 [Compound 27, 1-(benzo[d][1,3]dioxol-5-yl)-N-(6-benzylpyrazin-2-yl)cyclopropanecarboxamide]
25 to 100	Cc1cc(O)nc(NC(=O)C2(c3ccc4c(c3)OCO4)CC2)n1 [Compound 35, 1-(benzo[d][1,3]dioxol-5-yl)-N-(4-hydroxy-6-methylpyrimidin-2-yl)cyclopropanecarboxamide]
25 to 100	N#Cc1ccc(NC(=O)C2(c3ccc4c(c3)OCO4)CC2)cn1 [Compound 15, 1-(benzo[d][1,3]dioxol-5-yl)-N-(6-cyanopyridin-3-yl)cyclopropanecarboxamide]
> 100	O=C(Nc1ccc(Cc2ccccc2Cl)nc1)C1(c2ccc3c(c2)OCO3)CC1 [Compound 37, 1-(benzo[d][1,3]dioxol-5-yl)-N-(6-(2-chlorobenzyl)pyridin-3-yl)cyclopropanecarboxamide]
> 100	Cc1ncc(NC(=O)C2(c3ccc4c(c3)OCO4)CC2)cc1-c1cccc(CO)c1 [Compound 40]
> 100	Cc1ccc(S(=O)(=O)c2ncccc2NC(=O)C2(c3ccc4c(c3)OCO4)CC2)cc1 [Compound 18, 1-(benzo[d][1,3]dioxol-5-yl)-N-(2-tosylpyridin-3-yl)cyclopropanecarboxamide]
25 to 100	O=C(Nc1ccc(CC2CCCCC2)nn1)C1(c2ccc3c(c2)OCO3)CC1 [Compound 5, 1-(benzo[d][1,3]dioxol-5-yl)-N-(6-(cyclohexylmethyl)pyridazin-3-yl)cyclopropanecarboxamide]
25 to 100	Cc1cnc(NC(=O)C2(c3ccc4c(c3)OC(F)(F)O4)CC2)nc1-c1ccc(C(=O)O)cc1 [Compound 11, 4-(2-(1-(2,2-difluorobenzo[d][1,3]dioxol-5-yl)cyclopropanecarboxamido)-5-methylpyrimidin-4-yl)benzoic acid]
25 to 100	Cc1cnc(NC(=O)C2(c3ccc4c(c3)OC(F)(F)O4)CC2)nc1-c1cccc(C(=O)O)c1 [Compound 45, 3-(2-(1-(2,2-difluorobenzo[d][1,3]dioxol-5-yl)cyclopropanecarboxamido)-5-methylpyrimidin-4-yl)benzoic acid]
> 100	CC(Oc1ccc(Cl)cc1)c1ccnc(NC(=O)C2(c3ccc4c(c3)OCO4)CC2)n1 (stereo not drawn) [Compound 14, 1-(benzo[d][1,3]dioxol-5-yl)-N-(4-(1-(4-chlorophenoxy)ethyl)pyrimidin-2-yl)cyclopropanecarboxamide]
> 100	O=C(Nc1ccc(Cc2ccccc2)nc1)C1(c2ccc3c(c2)OCO3)CC1 [Compound 19, 1-(benzo[d][1,3]dioxol-5-yl)-N-(6-benzylpyridin-3-yl)cyclopropanecarboxamide]
25 to 100	Cc1cccc(Oc2ccc(NC(=O)C3(c4ccc5c(c4)OCO5)CC3)cn2)c1C [Compound 26, 1-(benzo[d][1,3]dioxol-5-yl)-N-(6-(2,3-dimethylphenoxy)pyridin-3-yl)cyclopropanecarboxamide]

Emax [%]	Structure (SMILES)
25 to 100	Cc1ncc(NC(=O)C2(c3ccc4c(c3)OCO4)CC2)cc1-c1cccc(S(N)(=O)=O)c1 [Compound 20, 1-(benzo[d][1,3]dioxol-5-yl)-N-(6-methyl-5-(3-sulfamoylphenyl)pyridin-3-yl)cyclopropanecarboxamide]
25 to 100	O=C(Nc1ncc2c(n1)-c1ccoc1CC2)C1(c2ccc3c(c2)OCO3)CC1 [Compound 23, 1-(benzo[d][1,3]dioxol-5-yl)-N-(5,6-dihydrofuro[2,3-h]quinazolin-2-yl)cyclopropanecarboxamide]
25 to 100	Cc1ncc(NC(=O)C2(c3ccc4c(c3)OCO4)CC2)cc1-c1cccc(S(=O)(=O)N(C)C)c1 [Compound 6]
25 to 100	O=C(N(c1ccnc(C(F)(F)F)c1)c1ccccn1)C1(c2ccc3c(c2)OCO3)CC1 [Compound 41, 1-(benzo[d][1,3]dioxol-5-yl)-N-(pyridin-2-yl)-N-(2-(trifluoromethyl)pyridin-4-yl)cyclopropanecarboxamide]
> 100	COc1ccccc1Nc1cnc(NC(=O)C2(c3ccc4c(c3)OCO4)CC2)cn1 [Compound 2, 1-(benzo[d][1,3]dioxol-5-yl)-N-(5-(2-methoxyphenylamino)pyrazin-2-yl)cyclopropanecarboxamide]
25 to 100	Cc1ncc(NC(=O)C2(c3ccc4c(c3)OCO4)CC2)cc1-c1cccc(C(N)=O)c1 [Compound 17]
> 100	COc1ccccc1Cc1cc(NC(=O)C2(c3ccc4c(c3)OCO4)CC2)ccn1 [Compound 47]
> 100	O=C(Nc1cnc(Cc2ccccc2Cl)cn1)C1(c2ccc3c(c2)OCO3)CC1 [Compound 1, 1-(benzo[d][1,3]dioxol-5-yl)-N-(5-(2-chlorobenzyl)pyrazin-2-yl)cyclopropanecarboxamide]
25 to 100	Cc1ncc(NC(=O)C2(c3ccc4c(c3)OCO4)CC2)cc1-c1ccc(C(N)=O)cc1 [Compound 39]
25 to 100	CC(C)c1ccc(NC(=O)C2(c3ccc4c(c3)OCO4)CC2)cn1 [Compound 31, 1-(Benzo[d][1,3]dioxol-5-yl)-N-(6-isopropylpyridin-3-yl)cyclopropanecarboxamide]
25 to 100	Cc1cnc(NC(=O)C2(c3ccc4c(c3)OC(F)(F)O4)CC2)nc1-c1ccc(=O)[nH]c1 [Compound 28, 1-(2,2-difluorobenzo[d][1,3]dioxol-5-yl)-N-(5-methyl-4-(6-oxo-1,6-dihydropyridin-3-yl)pyrimidin-2-yl)cyclopropanecarboxamide]
25 to 100	O=C(Nc1ccc(Cc2ccccc2Cl)nn1)C1(c2ccc3c(c2)OCO3)CC1 [Compound 46]
> 100	COc1ccccc1-c1ccc(NC(=O)C2(c3ccc4c(c3)OCO4)CC2)cn1 [Compound 24, 1-(benzo[d][1,3]dioxol-5-yl)-N-(6-(2-methoxyphenyl)pyridin-3-yl)cyclopropanecarboxamide]
> 100	O=C(Nc1ccc(-c2ccccc2Cl)nc1)C1(c2ccc3c(c2)OCO3)CC1 [Compound 7, 1-(benzo[d][1,3]dioxol-5-yl)-N-(6-(2-chlorophenyl)pyridin-3-yl)cyclopropanecarboxamide]
> 100	O=C(Nc1cncc(Cc2ccccc2Cl)n1)C1(c2ccc3c(c2)OCO3)CC1 [Compound 13]
> 100	Cc1ncc(NC(=O)C2(c3ccc4c(c3)OCO4)CC2)cc1-c1ccc(S(=O)(=O)N(C)C)cc1 [Compound 8]
> 100	CNS(=O)(=O)c1ccc(-c2cc(NC(=O)C3(c4ccc5c(c4)OCO5)CC3)cnc2C)cc1 [Compound 30, 1-(benzo[d][1,3]dioxol-5-yl)-N-(6-methyl-5-(4-(N-methylsulfamoyl)phenyl)pyridin-3-yl)cyclopropanecarboxamide]
> 100	O=C(Nc1ccc(-c2ccccc2)nc1)C1(c2ccc3c(c2)OCO3)CC1 [Compound 32, 1-(benzo[d][1,3]dioxol-5-yl)-N-(6-phenylpyridin-3-yl)cyclopropanecarboxamide]
25 to 100	Cc1c(NC(=O)C2(c3ccc4c(c3)OC(F)(F)O4)CC2)ccnc1-c1cccc(C(=O)O)c1 [Compound 9]
